What was measured:
IRAK4 = biological target: T1, IRAK4 (Homo sapiens, UniProt Q9NWZ3); experiment: Western blot degradation of IRAK4 (hPBMC); format: cell-based; conditions: Table D1
T1 construct: evaluate the effects of the compounds of the present disclosure on the expression of target proteins in cells; endogenous in cells; host or cells: hPBMC
T1 sequence (Q9NWZ3 1-460): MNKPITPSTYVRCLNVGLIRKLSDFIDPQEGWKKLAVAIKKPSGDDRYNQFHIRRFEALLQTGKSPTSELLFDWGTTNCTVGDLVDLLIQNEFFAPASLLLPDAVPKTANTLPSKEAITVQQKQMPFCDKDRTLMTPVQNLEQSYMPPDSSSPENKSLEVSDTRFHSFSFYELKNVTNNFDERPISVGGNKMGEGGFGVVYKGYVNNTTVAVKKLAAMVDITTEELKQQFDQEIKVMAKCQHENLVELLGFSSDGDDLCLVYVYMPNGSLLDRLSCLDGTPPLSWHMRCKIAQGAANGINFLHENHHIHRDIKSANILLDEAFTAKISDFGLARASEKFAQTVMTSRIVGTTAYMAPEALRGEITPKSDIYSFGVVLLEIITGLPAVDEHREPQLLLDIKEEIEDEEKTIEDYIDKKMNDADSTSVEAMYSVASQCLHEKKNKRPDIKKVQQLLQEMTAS
Procedure: Conventional Western blot assay was performed to evaluate the effects of the compounds of the present disclosure on the expression of target proteins in cells.
(1) Cell Seeding and Protein Harvesting: The selected cells were processed according to the cell seeding procedure and protein harvesting procedure in Table III-2. Table III-2 Cell Seeding and Protein Harvesting Procedures
(2) To the collected supernatant, 5X SDS sample loading buffer was added, followed by denaturation at 95°C for 5 minutes. The denatured samples were then separated by SDS-PAGE electrophoresis on a polyacrylamide gel. Proteins were transferred to a nitrocellulose membrane (0.45 µm NC membrane), blocked with blocking buffer at room temperature for 1 hour, and subjected to antibody incubation and development procedures according to the antibody manufacturer's instructions (Cell Signaling Technology).
Half-Maximal Degradation Concentration value (the drug concentration required for degrading proteins by 50%, abbreviated as DC50) reads method: comparing the grayscale values of Western blot bands from drug-treated samples with those from blank DMSO-treated controls, and identifying the drug concentration range at which the grayscale value is half that of the DMSO-treated control bands.
DC50 values can be calculated using ImageJ software to measure grayscale values of Western blot bands from drug-treated samples. The concentration-response curve is fitted to estimate the drug concentration corresponding to half the grayscale value.
Target protein remaining (%) refers to the percentage of target protein remaining in hPBMC cells after treatment with protein degrader compounds.
Calculation method for target protein remaining (%): Use ImageJ software to measure grayscale values of Western blot bands from drug (protein degrader)-treated samples. The grayscale value of drug-treated bands is divided by that of internal control protein bands, and the resulting quotient is normalized to obtain the relative percentage of remaining target protein after protein degrader treatment.
Target protein degradation rate (%) = 100% - target protein remaining (%).

H1975 = experiment: CCK-8 proliferation, NCI-H1975 (H1975); format: cell-based, Human; conditions: Homo sapiens, NCI-H1975; CCK-8; 96 hours; read-out: Inhibitory activity (IC50) on tumor cell proliferation, H1975
Procedure, shortened: (§1)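 Cells seeded, then after 24 h treated with 10 concentrations (top 10 µM, 5-fold serial dilution) for a line-specific time at 37°C, 5% CO2. Viability read by CCK-8; IC50 fitted from growth-inhibition curves.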

MCF7 = experiment: CCK-8 proliferation, MCF7 (MCF-7); format: cell-based; conditions: Homo sapiens, MCF7; CCK-8; read-out: Inhibitory activity (IC50) on tumor cell proliferation, MCF7
Procedure, shortened: as §1

CCRF-CEM = experiment: CCK-8 proliferation, CCRF-CEM; format: cell-based, Human; conditions: Homo sapiens, CCRF-CEM; CCK-8; 96 hours; read-out: Inhibitory activity (IC50) on tumor cell proliferation, CCRF-CEM
Procedure: (§2) The tumor cells used herein were cultured in a cell culture medium listed in table A1 at 37°C in an incubator with 5% CO2. Prior to experimentation, all cell lines used were correctly identified by STR profiling, and tested negative for mycoplasma contamination using a mycoplasma detection kit through routine screenings. Table A1. Tumor cells and cell culture medium used in the present disclosure
(§3) IC50 values of the compounds of the present disclosure (including the compounds in Table 1, and compounds of examples) were measured using the Meilun Cell Counting Kit-8 kit from Dalian Meilun Biotech Co., Ltd. Assay details are as follows: tumor cells were seeded in a 96-well plate at a density listed in Table A2. After 24h, 100 µL of the inoculated cells were treated with 0.5µL of the compounds of the present disclosure (including the compounds in Tables 1 and 2, and compounds of examples) at 10 different successively decreasing concentrations (starting at the highest concentration of 10µM; 5-fold serial dilutions). After the cells were treated with the compounds of the present disclosure for a period of time, the cell viability detection reagent was added to the culture medium for cell viability assessment according to the instructions provided with the CCK-8 kit. […] The growth inhibition of the compounds of the present disclosure on cells was plotted by Prism Graphpad software, and the IC50 values of the compounds of the present disclosure were calculated therefrom. […] Seeding protocol and treatment time for tumor cells

MM.1S = experiment: CCK-8 proliferation, MM.1S; format: cell-based; conditions: Homo sapiens, MM1.S; CCK-8; 72 hours; read-out: Inhibitory activity (IC50) on tumor cell proliferation, MM1S
Procedure: as §2, §3

[1] = biological target: T2, human Cereblon WT GST-tagged protein (Homo sapiens, UniProt Q96SW2); experiment: CRBN binding, HTRF (CEREBLON BINDING kit); conditions: Table II-2, CRBN binding screening, HTRF
T2 construct: purchased CISBIO 64BDCRBNPEH
Procedure, shortened: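 Competitive HTRF: GST-tagged human WT Cereblon mixed with compound, Thalidomide-Re tracer and GST Eu antibody, incubated 3 h at room temperature. Signals read at 620 and 665 nm.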

EGFR = experiment: Western blot degradation of EGFR (H1975 Cell); format: cell-based, Human; conditions: Table D2
Procedure, shortened: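 Quantification by ImageJ densitometry of Western blot bands: DC50 is the fitted concentration halving band intensity relative to DMSO. Percent remaining uses internal-control normalization, and degradation rate is its complement.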

T2 sequence (Q96SW2 whole entry): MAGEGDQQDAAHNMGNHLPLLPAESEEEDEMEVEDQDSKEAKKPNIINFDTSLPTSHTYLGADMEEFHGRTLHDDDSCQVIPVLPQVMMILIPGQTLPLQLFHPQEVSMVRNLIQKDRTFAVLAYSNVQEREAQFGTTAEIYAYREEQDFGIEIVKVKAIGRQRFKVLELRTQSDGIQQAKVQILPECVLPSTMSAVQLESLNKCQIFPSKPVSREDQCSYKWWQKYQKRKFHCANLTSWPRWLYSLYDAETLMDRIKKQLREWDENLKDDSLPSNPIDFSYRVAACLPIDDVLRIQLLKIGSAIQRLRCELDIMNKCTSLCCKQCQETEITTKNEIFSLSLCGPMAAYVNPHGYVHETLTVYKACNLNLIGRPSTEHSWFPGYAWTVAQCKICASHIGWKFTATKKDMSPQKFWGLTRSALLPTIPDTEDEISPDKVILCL

## CC(C)Nc1cc(-n2ccc3cc(C#N)cnc32)ncc1C(=O)NC1CCN(Cc2cc(N3CCC(=O)NC3=O)ncc2F)CC1 [GT-07408, 6-(5-cyano-1H-pyrrolo[2,3-b]pyridin-1-yl)-N-(1-((2-(2,4-dioxotetrahydropyrimidin-1(2H)-yl)-5-fluoropyridin-4-yl)methyl)piperidin-4-yl)-4-(isopropylamino)nicotinamide]
IRAK4
  Degradation of substrate protein IRAK4 (substrate protein remaining %): A (A is defined as 0% ≤ substrate protein remaining % ≤ 80%)

## COc1cc2nn(C3CCN(Cc4cccc(N5CCC(=O)NC5=O)c4)CC3)cc2cc1NC(=O)c1cccc(C(F)(F)F)c1 [GT-04750, N-(2-(1-(3-(2,4-dioxotetrahydropyrimidin-1(2H)-yl)benzyl)piperidin-4-yl)-6-methoxy-2H-indazol-5-yl)-3-(trifluoromethyl)benzamide]
IRAK4
  Degradation of substrate protein IRAK4 (substrate protein remaining %): A (A is defined as 0% ≤ substrate protein remaining % ≤ 80%)

## COc1cc2nn(C3CCN(Cc4ccc(N5CCC(=O)NC5=O)nc4)CC3)cc2cc1NC(=O)c1cccc(C(F)(F)F)c1 [GT-04879, N-(2-(1-((6-(2,4-dioxotetrahydropyrimidin-1(2H)-yl)pyridin-3-yl)methyl)piperidin-4-yl)-6-methoxy-2H-indazol-5-yl)-3-(trifluoromethyl)benzamide]
IRAK4
  Degradation of substrate protein IRAK4 (substrate protein remaining %): A (A is defined as 0% ≤ substrate protein remaining % ≤ 80%)

## O=C1CCN(c2cccc(CN3CCC(n4cc(NC(=O)c5coc(-c6ccnc(NCC(F)(F)F)c6)n5)c(C(F)F)n4)CC3)c2)C(=O)N1 [GT-05190, N-(3-(difluoromethyl)-1-(1-(3-(2,4-dioxotetrahydropyrimidin-1(2H)-yl)benzyl)piperidin-4-yl)-1H-pyrazol-4-yl)-2-(2-((2,2,2-trifluoroethyl)amino)pyridin-4-yl)oxazole-4-carboxamide]
IRAK4
  Degradation of substrate protein IRAK4 (substrate protein remaining %): A (A is defined as 0% ≤ substrate protein remaining % ≤ 80%)

## Cc1cc(-c2nc(C(=O)Nc3cc4oc(N5CCN(Cc6ccc(N7CCC(=O)NC7=O)cc6)CC5)nc4nc3N3CC[C@@H](O)C3)co2)ccn1 [GT-05807, (R)-N-(2-(4-(4-(2,4-dioxotetrahydropyrimidin-1(2H)-yl)benzyl)piperazin-1-yl)-5-(3-hydroxypyrrolidin-1-yl)oxazolo[4,5-b]pyridin-6-yl)-2-(2-methylpyridin-4-yl)oxazole-4-carboxamide]
IRAK4
  Degradation of substrate protein IRAK4 (substrate protein remaining %): A (A is defined as 0% ≤ substrate protein remaining % ≤ 80%)

## COc1cc2nn(C3CCN(Cc4ccc(C5CCC(=O)NC5=O)cc4)CC3)cc2cc1NC(=O)c1cccc(C(F)(F)F)n1 (centres unmarked) [GT-04761, N-(2-(1-(4-(2,6-dioxopiperidin-3-yl)benzyl)piperidin-4-yl)-6-methoxy-2H-indazol-5-yl)-6-(trifluoromethyl)picolinamide]
IRAK4
  Degradation of substrate protein IRAK4 (substrate protein remaining %): A (A is defined as 0% ≤ substrate protein remaining % ≤ 80%)

## Cc1nc2c(F)cc(-c3nc(Nc4ccc(N5CCC(N6CCN(Cc7cncc(N8CCC(=O)NC8=O)c7)CC6)CC5)cn4)ncc3F)cc2n1C(C)C [GT-07488, 1-(5-((4-(1-(6-((5-fluoro-4-(4-fluoro-1-isopropyl-2-methyl-1H-benzo[d]imidazol-6-yl)pyrimidin-2-yl)amino)pyridin-3-yl)piperidin-4-yl)piperazin-1-yl)methyl)pyridin-3-yl)dihydropyrimidine-2,4(1H,3H)-dione]
H1975
  IC50: 0.1 to 0.5 µM
MCF7
  IC50: 0.05 to 0.1 µM
CCRF-CEM
  IC50: 0.1 to 0.5 µM
MM.1S
  IC50: 0.05 to 0.1 µM
[1]; at 0.5µM, read-out: Inhibition rate (%) at 0.5µM
  inhibition at 0.5 µM: 53 to 60%
[1]; at 2 µM, read-out: Inhibition rate (%) at 2 µM
  inhibition at 2 µM: 80 to 100%

## O=C1CCN(c2ccc(CN3CCC(N4CCN(c5ccc(-c6cc(F)c7c(c6)C(=O)N(C(C(=O)Nc6nccs6)c6ncn8c6CCC8)C7)cc5)CC4)CC3)cn2)C(=O)N1 (centres unmarked) [GT-06330, 2-(6,7-dihydro-5H-pyrrolo[1,2-c]imidazol-1-yl)-2-(6-(4-(4-(1-((6-(2,4-dioxotetrahydropyrimidin-1(2H)-yl)pyridin-3-yl)methyl)piperidin-4-yl)piperazin-1-yl)phenyl)-4-fluoro-1-oxoisoindolin-2-yl)-N-(thiazol-2-yl)acetamide]
H1975
  IC50: 0.001 to 0.01 µM
EGFR
  Degradation of substrate protein EGFR (substrate protein remaining %): A (A is defined as 0% ≤ substrate protein remaining % ≤ 80%)
